Assay results taken from patent publication US10053463B2 (Janssen Pharmaceutica NV, priority 2013, dated 2018).

Biological target: P2X7 (Homo sapiens (Human), UniProt Q99572)
Assay: P2X7 antagonism in human peripheral blood mononuclear cells (PBMCs), IL-1β release
Type: cell-based
Conditions: 10 μM compound; for remaining activity at 10 µM: P2X7, Table 3 (additional runs), read-out: PBMC 10 μM (% control)
Description: P2X7 Antagonism in Human Peripheral Blood Mononuclear Cells (PBMCs) and Human Whole Blood.
Human blood was collected using a blood donor program. PBMCs were isolated from blood using a Ficoll density gradient technique. Briefly, blood was laid on Ficoll solution and centrifuged at RT for 20 minutes at 2000 rpm. The buffy layer (between red blood cells and plasma) was carefully collected by aspiration, washed with PBS and centrifuged again at 1500 rpm for 15 minutes. The resulting cell pellet was washed and plated on 96 well-plates for experiments. For the Human Whole Blood experiments, 150 μl of human blood was platted on 96 well-plates. Lipopolysaccharide (LPS) (30 ng/ml) was added to each well and incubated for 1 hour. Test compounds were then added and incubated for 30 minutes. The P2X7 agonist, 2′(3′)-O-(4-benzoylbenzoyl) adenosine 5′-triphosphate (Bz-ATP) was then added at a final concentration of 0.5 mM (PBMC) or 1 mM (blood). Cells were incubated for an additional 1.5 hours. At that point, supernatant was collected and stored for IL-1β assay using manufacturer's protocol for enzyme-linked immunosorbent assay (ELISA). Data was expressed as percent control, where control is defined as the difference in IL-1β release in LPS+Bz-ATP samples and LPS only samples. Data was plotted as response (% control) versus concentration to generate IC50 values. […] Data are analyzed and graphed on Graphpad Prism 5. For analysis, each concentration point is averaged from triplicate values and the averaged values are plotted on Graphpad Prism.

Sequence of P2X7 (Q99572 whole entry): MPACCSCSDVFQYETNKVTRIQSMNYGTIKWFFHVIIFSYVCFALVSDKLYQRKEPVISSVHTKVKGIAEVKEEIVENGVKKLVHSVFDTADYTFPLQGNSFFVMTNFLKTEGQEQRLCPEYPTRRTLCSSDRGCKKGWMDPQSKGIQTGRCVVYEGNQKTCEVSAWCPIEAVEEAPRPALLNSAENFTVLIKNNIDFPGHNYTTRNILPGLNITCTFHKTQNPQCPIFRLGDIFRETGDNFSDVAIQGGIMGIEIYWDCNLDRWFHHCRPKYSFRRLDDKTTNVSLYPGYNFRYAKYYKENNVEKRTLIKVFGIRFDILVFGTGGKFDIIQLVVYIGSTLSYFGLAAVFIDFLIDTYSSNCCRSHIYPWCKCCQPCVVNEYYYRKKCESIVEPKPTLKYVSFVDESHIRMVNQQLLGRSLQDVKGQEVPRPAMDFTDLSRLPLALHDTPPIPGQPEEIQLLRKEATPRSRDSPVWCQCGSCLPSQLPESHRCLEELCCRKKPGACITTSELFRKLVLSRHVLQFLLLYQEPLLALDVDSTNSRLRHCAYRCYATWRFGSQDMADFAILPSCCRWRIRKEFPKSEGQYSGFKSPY

SMILES | remaining activity at 10 µM [%] | PBMC 10 μM (% control) (Table 2, IL-1β release, LPS + 0.5 mM Bz-ATP)
C[C@H]1Cn2c(nnc2C2CCN(C(=O)OC(C)(C)C)C2)C(=O)N1Cc1cccc(C(F)(F)F)c1Cl (stereo partly drawn) [Example 58, (6S)-tert-Butyl3-{7-[2-chloro-3-(trifluoromethyl)benzyl]-6-methyl-8-oxo-5,6,7,8-tetrahydro[1,2,4]triazolo[4,3-a]pyrazin-3-yl}pyrrolidine-1-carboxylate] | 24.6 | –
C[C@H]1Cn2c(nnc2-c2ccc(F)cc2)C(=O)N1Cc1cccc(C(F)(F)F)c1Cl [Example 17, (6S)-7-[2-Chloro-3-(trifluoromethyl)benzyl]-3-(4-fluorophenyl)-6-methyl-6,7-dihydro[1,2,4]triazolo[4,3-a]pyrazin-8(5H)-one] | 2 | –
C[C@H]1Cn2c(nnc2-c2nccs2)C(=O)N1Cc1cccc(C(F)(F)F)c1Cl [Example 31, (6S)-7-[2-Chloro-3-(trifluoromethyl)benzyl]-6-methyl-3-(1,3-thiazol-2-yl)-6,7-dihydro[1,2,4]triazolo[4,3-a]pyrazin-8(5H)-one] | 3 | –
C[C@H]1Cn2c(-c3cccnc3)nnc2-c2nnc(-c3cccc(C(F)(F)F)c3Cl)n21 [Example 122, (S)-3-[2-chloro-3-(trifluoromethyl)phenyl]-5-methyl-8-(pyridin-3-yl)-5,6-dihydrobis[1,2,4]triazolo[4,3-a:3′,4′-c]pyrazine] | 9.5 | –
C[C@H]1Cn2c(nnc2-c2cnccn2)C(=O)N1Cc1cccc(Cl)c1Cl [Example 13, (6S)-7-(2,3-Dichlorobenzyl)-6-methyl-3-pyrazin-2-yl-6,7-dihydro[1,2,4]triazolo[4,3-a]pyrazin-8(5H)-one] | 8.2 | 15.4
C[C@H]1Cn2c(nnc2-c2cncc(F)c2)C(=O)N1Cc1cccc(C(F)(F)F)c1Cl [Example 45, (6S)-7-[2-Chloro-3-(trifluoromethyl)benzyl]-3-(5-fluoropyridin-3-yl)-6-methyl-6,7-dihydro[1,2,4]triazolo[4,3-a]pyrazin-8(5H)-one] | 20.1 | –
C[C@H]1Cn2c(nnc2-c2cncc(Cl)c2)C(=O)N1Cc1cccc(C(F)(F)F)c1Cl [Example 52, (6S)-3-(5-Chloropyridin-3-yl)-7-[2-chloro-3-(trifluoromethyl)benzyl]-6-methyl-6,7-dihydro[1,2,4]triazolo[4,3-a]pyrazin-8(5H)-one] | 13.8 | –
CC1Cn2c(nnc2-c2cnccn2)C(=O)N1Cc1cccc(C(F)(F)F)c1Cl (racemic) [Example 14, (±)-7-[2-Chloro-3-(trifluoromethyl)benzyl]-6-methyl-3-pyrazin-2-yl-6,7-dihydro[1,2,4]triazolo[4,3-a]pyrazin-8(5H)-one] | 2.5 | –
C[C@H]1Cn2c(nnc2-c2cscn2)C(=O)N1Cc1cccc(C(F)(F)F)c1Cl [Example 32, (6S)-7-[2-Chloro-3-(trifluoromethyl)benzyl]-6-methyl-3-(1,3-thiazol-4-yl)-6,7-dihydro[1,2,4]triazolo[4,3-a]pyrazin-8(5H)-one] | 3.8 | –
C[C@H]1Cn2c(nnc2-c2ccc(F)cn2)C(=O)N1Cc1cccc(C(F)(F)F)c1Cl [Example 30, (6S)-7-[2-Chloro-3-(trifluoromethyl)benzyl]-3-(5-fluoropyridin-2-yl)-6-methyl-6,7-dihydro[1,2,4]triazolo[4,3-a]pyrazin-8(5H)-one] | 3.4 | –
C[C@H]1Cn2c(nnc2-c2cnccn2)C(=O)N1Cc1cccc(C(F)(F)F)c1 [Example 88, (6S)-6-Methyl-3-pyrazin-2-yl-7-[3-(trifluoromethyl)benzyl]-6,7-dihydro[1,2,4]triazolo[4,3-a]pyrazin-8(5H)-one] | 29.9 | –
C[C@H]1Cn2c(-c3cnn(C)c3)nnc2-c2nnc(-c3cccc(C(F)(F)F)c3Cl)n21 [Example 114, (5S)-3-[2-Chloro-3-(trifluoromethyl)phenyl]-5-methyl-8-(1-methyl-1H-pyrazol-4-yl)-5,6-dihydrobis[1,2,4]triazolo[4,3-a:3′,4′-c]pyrazine] | 4.4 | –
CC[C@H]1Cn2c(nnc2-c2ccc(F)cn2)C(=O)N1Cc1cccc(C(F)(F)F)c1Cl [Example 76, (6S)-7-[2-Chloro-3-(trifluoromethyl)benzyl]-6-ethyl-3-(5-fluoropyridin-2-yl)-6,7-dihydro[1,2,4]triazolo[4,3-a]pyrazin-8(5H)-one] | 16.9 | –
COc1ccnc(-c2nnc3n2C[C@H](C)N(Cc2cccc(C(F)(F)F)c2Cl)C3=O)c1 [Example 35, (6S)-7-[2-Chloro-3-(trifluoromethyl)benzyl]-3-(4-methoxypyridin-2-yl)-6-methyl-6,7-dihydro[1,2,4]triazolo[4,3-a]pyrazin-8(5H)-one] | -3.1 | –
O=C1c2nnc(-c3cccnc3)n2CC(C2CC2)N1Cc1cccc(C(F)(F)F)c1Cl (racemic) [Example 67, (±)-7-[2-Chloro-3-(trifluoromethyl)benzyl]-6-cyclopropyl-3-pyridin-3-yl-6,7-dihydro[1,2,4]triazolo[4,3-a]pyrazin-8(5H)-one] | 6.9 | –
C[C@@H]1Cn2c(nnc2-c2cnccn2)C(=O)N1Cc1cccc(C(F)(F)F)c1Cl [Example 15, (6R)-7-[2-Chloro-3-(trifluoromethyl)benzyl]-6-methyl-3-pyrazin-2-yl-6,7-dihydro[1,2,4]triazolo[4,3-a]pyrazin-8(5H)-one] | 4.1 | –
C[C@H]1Cn2c(nnc2-c2cccnn2)C(=O)N1Cc1cccc(C(F)(F)F)c1Cl [Example 44, (6S)-7-[2-Chloro-3-(trifluoromethyl)benzyl]-6-methyl-3-pyridazin-3-yl-6,7-dihydro[1,2,4]triazolo[4,3-a]pyrazin-8(5H)-one] | 26 | –
C[C@H]1Cn2c(nnc2-c2cnccn2)C(=O)N1Cc1cc([N+](=O)[O-])ccc1Cl [Example 90, (6S)-7-(2-Chloro-5-nitrobenzyl)-6-methyl-3-pyrazin-2-yl-6,7-dihydro[1,2,4]triazolo[4,3-a]pyrazin-8(5H)-one] | 24.4 | –
C[C@H]1Cn2c(-c3cocn3)nnc2-c2nnc(-c3cccc(C(F)(F)F)c3Cl)n21 [Example 104, (5S)-3-[2-Chloro-3-(trifluoromethyl)phenyl]-5-methyl-8-(1,3-oxazol-4-yl)-5,6-dihydrobis[1,2,4]triazolo[4,3-a:3′,4′-c]pyrazine] | 4.3 | –
C[C@H]1Cn2c(nnc2-c2cocn2)C(=O)N1Cc1cccc(C(F)(F)F)c1Cl [Example 21, (6S)-7-[2-Chloro-3-(trifluoromethyl)benzyl]-6-methyl-3-(1,3-oxazol-4-yl)-6,7-dihydro[1,2,4]triazolo[4,3-a]pyrazin-8(5H)-one] | -3.4 | –
C[C@H]1Cn2c(nnc2-c2cnccn2)C(=O)N1Cc1cc2c(cc1Cl)OCO2 [Example 84, (6S)-7-[(6-Chloro-1,3-benzodioxol-5-yl)methyl]-6-methyl-3-pyrazin-2-yl-6,7-dihydro[1,2,4]triazolo[4,3-a]pyrazin-8(5H)-one] | 25.9 | –
C[C@H]1Cn2c(-c3cccc(C(F)(F)F)n3)nnc2-c2nnc(-c3cccc(C(F)(F)F)c3Cl)n21 [Example 117, (S)-3-[2-chloro-3-(trifluoromethyl)phenyl]-5-methyl-8-(6-(trifluoromethyl)pyridine-2-yl)-5,6-dihydrobis[1,2,4]triazolo[4,3-a:3′,4′-c]pyrazine] | 25.9 | –
C[C@H]1Cn2c(nnc2-c2ccccn2)C(=O)N1Cc1cccc(C(F)(F)F)c1Cl [Example 18, (6S)-7-[2-Chloro-3-(trifluoromethyl)benzyl]-6-methyl-3-pyridin-2-yl-6,7-dihydro[1,2,4]triazolo[4,3-a]pyrazin-8(5H)-one] | -6.2 | –
C[C@H]1Cn2c(nnc2-c2ccncc2)C(=O)N1Cc1cccc(C(F)(F)F)c1Cl [Example 47, (6S)-7-[2-Chloro-3-(trifluoromethyl)benzyl]-6-methyl-3-pyridin-4-yl-6,7-dihydro[1,2,4]triazolo[4,3-a]pyrazin-8(5H)-one] | -1.3 | –
C[C@H]1Cn2c(nnc2-c2cnccn2)C(=O)N1Cc1ccc(F)cc1Cl [Example 78, (6S)-7-(2-Chloro-4-fluorobenzyl)-6-methyl-3-pyrazin-2-yl-6,7-dihydro[1,2,4]triazolo[4,3-a]pyrazin-8(5H)-one] | 8.3 | –
CC1Cn2c(nnc2-c2cnccn2)C(=O)N1Cc1cccc(Cl)c1Cl (racemic) [Example 11, (±)-7-(2,3-Dichlorobenzyl)-6-methyl-3-pyrazin-2-yl-6,7-dihydro[1,2,4]triazolo[4,3-a]pyrazin-8(5H)-one] | -0.4 | –
C[C@H]1Cn2c(nnc2-c2cnccn2)C(=O)N1Cc1ccccc1 [Example 79, (6S)-7-Benzyl-6-methyl-3-pyrazin-2-yl-6,7-dihydro[1,2,4]triazolo[4,3-a]pyrazin-8(5H)-one] | 15.6 | –
Cc1cnc(-c2nnc3n2C[C@H](C)N(Cc2cccc(C(F)(F)F)c2Cl)C3=O)cn1 [Example 19, (6S)-7-[2-Chloro-3-(trifluoromethyl)benzyl]-6-methyl-3-(5-methylpyrazin-2-yl)-6,7-dihydro[1,2,4]triazolo[4,3-a]pyrazin-8(5H)-one] | -9.5 | –
